Source: patent publication US5710123A, “Peptide inhibitors of selectin binding” (Centocor, Inc., priority 1995, dated 1998)
Where a SMILES comes first, the peptide text is derived from it. Bridges are numbered along the chain shown (N, C = ends). Where no end group is shown, it is not given here.

The compounds below were run against T1, P-selectin (Homo sapiens, UniProt P16109) (assay: Inhibition of binding of human neutrophils to P-selectin (neutrophil adhesion to purified immobilized P-selectin, myeloperoxidase readout)). Settings: P-selectin purified from human platelets, plated at 5 micrograms/mL, peptides tested 1.0 mM to 0.001 mM.
T1 construct: from tissue; host or cells: outdated human platelet packs from a blood bank
T1 sequence (P16109 42-830): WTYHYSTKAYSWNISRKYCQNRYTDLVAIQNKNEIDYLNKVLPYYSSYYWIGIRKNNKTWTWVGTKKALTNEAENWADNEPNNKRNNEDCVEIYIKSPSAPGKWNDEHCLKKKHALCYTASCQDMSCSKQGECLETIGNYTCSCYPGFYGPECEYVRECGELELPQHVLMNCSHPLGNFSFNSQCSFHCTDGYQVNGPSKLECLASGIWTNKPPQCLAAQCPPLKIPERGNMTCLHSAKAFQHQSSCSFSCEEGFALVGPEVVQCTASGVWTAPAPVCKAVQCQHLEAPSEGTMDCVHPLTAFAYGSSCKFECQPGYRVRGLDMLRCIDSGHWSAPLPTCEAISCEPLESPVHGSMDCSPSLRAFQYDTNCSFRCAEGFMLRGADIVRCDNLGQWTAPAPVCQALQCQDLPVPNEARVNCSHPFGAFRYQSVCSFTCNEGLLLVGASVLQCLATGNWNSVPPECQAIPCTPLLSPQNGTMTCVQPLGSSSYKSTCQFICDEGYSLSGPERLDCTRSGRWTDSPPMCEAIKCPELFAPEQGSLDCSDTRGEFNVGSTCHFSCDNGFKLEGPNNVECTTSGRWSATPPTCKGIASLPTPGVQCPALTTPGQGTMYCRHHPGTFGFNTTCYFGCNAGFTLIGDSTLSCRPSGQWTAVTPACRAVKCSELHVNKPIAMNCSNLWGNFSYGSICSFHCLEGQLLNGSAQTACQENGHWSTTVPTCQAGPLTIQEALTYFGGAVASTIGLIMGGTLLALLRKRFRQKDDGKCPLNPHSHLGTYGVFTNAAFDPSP
Type: cell-based
Source text: Peptides can be screened for their ability to inhibit adhesion to cells, for example, neutrophil adhesion to purified P-selectin immobilized on plastic wells, using the assay described by Geng, et al., Nature 343, 757-760 1990). Human neutrophils are isolated from heparinized […] blood by density gradient centrifugation on Mono-Poly resolving media, Flow Laboratories. Neutrophil suspensions are greater than 98% pure and greater than 95% viable by trypan blue exclusion. For adhesion assays, neutrophils are suspended at a concentration of 2×10^6 cells/mL in Hanks' balanced salt solution containing 1.26 mM Ca^2+ and 0.81 mM Mg^2+ (HBSS, Gibco) with […] human serum albumin (HBSS/HSA). Adhesion assays are conducted in triplicate in 96-well microtiter plates, Corning, incubated at 4° C. overnight with 50 microliters of various protein solutions. P-selectin is isolated from human platelet lysates by immunoaffinity chromatography on antibody S12-Sepharose™ and ion-exchange chromatography on a Mono-Q™ column (FLPC, Pharmacia Fine Chemicals), as follows. Outdated human platelet packs (100 units) obtained from a blood bank and stored at 4° C. are pooled, adjusted to 5 mM EDTA at pH 7.5, centrifuged at 4,000 rpm for 30 minutes in 1 liter bottles, then washed three times with 1 liter of 0.1M NaCl, 20 mM Tris pH 7.5 (TBS), 5 mM EDTA, 5 mM benzamidine. The pellets are then resuspended in a minimum amount of wash buffer and made 1 mM in DIFP, then frozen in 50 mL screwtop tubes at -80° C. The frozen platelets are thawed and resuspended in 50 mL TBS, 5 mM benzamidine, 5 mM EDTA pH 7.5, […]. The suspension is frozen and thawed two times in a dry ice-acetone bath using a 600 mL lyophilizing flask, then homogenized in a glass/teflon mortar and pestle and made 1 mM in DIFP. The NaCl concentration is adjusted to 0.5M with a stock solution of 4M NaCl. After stirring the suspension at 4° C., it is centrifuged in polycarbonate tubes at 33,000 rpm for 60 minutes at 4° C. The supernatant (0.5M NaCl wash) is removed and saved; this supernatant contains the soluble form of P-selectin. Care is taken not to remove the top part of the pellet with the supernatant. The pellets are then homogenized in extraction buffer (TBS, 5 mM benzamidine, 5 mM EDTA, pH 7.5, 100 μM leupeptin, 2% Triton X-100). After centrifugation at 19,500 rpm for 25 minutes at 4° C., the supernatant is removed. The extraction procedure is repeated with the pellet and the supernatant is combined with the first supernatant. The combined extracts, which contain the membrane form of P-selectin, are adjusted to 0.5M NaCl. The soluble fraction (0.5M NaCl wash) and the membrane extract (also adjusted to 0.5M NaCl) are absorbed with separate pools of the monoclonal antibody S12 (directed to P-selectin) previously coupled to Affigel (Biorad) at 5 mg/mL for 2 hours at 4° C. After letting the resins settle, the supernatants are removed. The S12 Affigel containing bound GMP-140 is then loaded into a column and washed overnight at 4° C. with 400 mL of 0.5M NaCl, 20 mM Tris pH 7.5, 0.01% Lubrol PX. Bound P-selectin is eluted from the S12 Affigel with 100 mL of 80% ethylene glycol, 1 mM MES pH 6.0, 0.01% Lubrol PX. Peak fractions with absorbance at 280 nm are pooled. Eluates are dialyzed against TBS with 0.05% Lubrol, then applied to a Mono Q column (FPLC from Pharmacia). The concentrated protein is step eluted with 2M NaCl, 20 mM Tris pH 7.5 (plus 0.05% Lubrol PX for the membrane fraction). Peak fractions are dialyzed into TBS pH 7.5 (plus 0.05% Lubrol PX for the membrane fraction). P-selectin is plated at 5 micrograms/mL and the control proteins: human serum albumin (Alb), platelet glycoprotein IIb/IIIa (IIb), von Willsbrand factor (vWF), fibrinogen (FIB), thrombomodulin (TM), gelatin (GEL) or human serum (HS), are added at 50 micrograms/mL. […]

IC50 [µM] | Compound
12 | Ac-SKLKLALCY-NH2 [SEQ ID NO: 51, Ac-SKLKLALCY--NH2]
586 | SRKRLALSY-NH2 [SEQ ID NO: 67, SRKRLALSY--NH2]
20 | FKKKLALCY-NH2 [SEQ ID NO: 8, FKKKLALCY--NH2]
282 | CC(C)C[C@H](NC(=O)[C@H](C)NC(=O)[C@H](C)NC(=O)[C@H](CCCCN)NC(=O)[C@H](CC(C)C)NC(=O)[C@H](CCCCN)NC(=O)[C@H](Cc1c[nH]cn1)NC(=O)[C@@H](N)CS)C(=O)N[C@@H](CS)C(=O)N[C@@H](Cc1ccc(O)cc1)C(N)=O [SEQ ID NO: 3, Cystinyl-histidyl-lysyl-leucyl-lysyl-alanyl-alanyl-leucyl-cystinyl-tyrosine-amide] (H-CHKLKAALCY-NH2)
269 | CC(C)C[C@H](NC(=O)[C@H](C)NC(=O)[C@H](Cc1c[nH]cn1)NC(=O)[C@H](CCCCN)NC(=O)[C@H](CCCCN)NC(=O)[C@H](CCCCN)NC(=O)[C@H](CC(C)C)NC(=O)[C@@H](N)CS)C(=O)N[C@@H](CS)C(=O)N[C@@H](Cc1ccc(O)cc1)C(N)=O [SEQ ID NO: 1, Cystinyl-leucyl-lysyl-lysyl-lysyl-histidyl-alanyl-leucyl-cystinyl-tyrosine- amide] (H-CLKKKHALCY-NH2)
18 | Ac-SRKRLALCY-NH2 [SEQ ID NO: 65, Ac-SRKRLALCY--NH2]
88 | Ac-SKKKLALLY-NH2 [SEQ ID NO: 37, Ac-SKKKLALLY--NH2]
1010 | QKKKLALCY-NH2 [SEQ ID NO: 17, QKKKLALCY--NH2]
78 | CC(C)C[C@@H]1NC(=O)[C@H](C)NC(=O)[C@H](CC(C)C)NC(=O)[C@H](CCCCN)NC(=O)[C@H](CCCCN)NC(=O)[C@H](CCCCN)NC(=O)[C@H](CO)NC(=O)[C@@H](N)CSSC[C@@H](C(=O)N[C@@H](Cc2ccc(O)cc2)C(N)=O)NC1=O [SEQ ID NO: 5] (H-CSKKKLALCY-NH2; disulfide 1-9)
2 | CC(C)C[C@@H]1NC(=O)[C@H](C)NC(=O)[C@H](C)NC(=O)[C@H](CCCCN)NC(=O)[C@H](CC(C)C)NC(=O)[C@H](CCCCN)NC(=O)[C@H](Cc2c[nH]cn2)NC(=O)[C@@H](N)CSSC[C@@H](C(=O)N[C@@H](Cc2ccc(O)cc2)C(N)=O)NC1=O [SEQ ID NO: 6, Cyclo-(cystinyl-histidyl-lysyl-leucyl-lysyl-alanyl-alanyl-leucyl-cystinyl)- tyrosine-amide] (H-CHKLKAALCY-NH2; disulfide 1-9)
233 | SKKKLALVY-NH2 [SEQ ID NO: 40, SKKKLALVY--NH2]
4 | SKRKLALCY-NH2 [SEQ ID NO: 54, SKRKLALCY--NH2]
19 | NKKKLALCY-NH2 [SEQ ID NO: 15, NKKKLALCY--NH2]
62 | SKKKIALCY-NH2 [SEQ ID NO: 26, SKKKIALCY--NH2]
11 | Ac-HKKKLALCY-NH2 [SEQ ID NO: 9, Ac-HKKKLALCY--NH2]
95 | SKKKLILCY-NH2 [SEQ ID NO: 45, SKKKLILCY--NH2]
82 | Ac-SKKKTALCY-NH2 [SEQ ID NO: 47, Ac-SKKKTALCY--NH2]
164 | Ac-SKKKLALVY-NH2 [SEQ ID NO: 39, Ac-SKKKLALVY--NH2]
16 | SRKKLALCY-NH2 [SEQ ID NO: 64, SRKKLALCY--NH2]
626 | CC(C)C[C@@H]1NC(=O)[C@H](C)NC(=O)[C@H](Cc2c[nH]cn2)NC(=O)[C@H](CCCCN)NC(=O)[C@H](CCCCN)NC(=O)[C@H](CCCCN)NC(=O)[C@H](CC(C)C)NC(=O)[C@@H](N)CSSC[C@@H](C(=O)N[C@@H](Cc2ccc(O)cc2)C(N)=O)NC1=O [SEQ ID NO: 4, Cyclo-(cystinyl-leucyl-lysyl-lysyl-lysyl-histidyl-alanyl-leucyl-cystinyl)-tyrosine-amide] (H-CLKKKHALCY-NH2; disulfide 1-9)
207 | SKKKLHLCY-NH2 [SEQ ID NO: 44, SKKKLHLCY--NH2]
47 | Ac-SRARLALCY-NH2 [SEQ ID NO: 61, Ac-SRARLALCY--NH2]
86 | SKKKLAFCY-NH2 [SEQ ID NO: 27, SKKKLAFCY--NH2]
131 | SKKKLALLY-NH2 [SEQ ID NO: 38, SKKKLALLY--NH2]
9 | SKLKLALCY-NH2 [SEQ ID NO: 52, SKLKLALCY--NH2]
195 | SKKQLALCY-NH2 [SEQ ID NO: 48, SKKQLALCY--NH2]
632 | SKRRLALSY-NH2 [SEQ ID NO: 59, SKRRLALSY--NH2]
95 | SKKKLFLCY-NH2 [SEQ ID NO: 43, SKKKLFLCY--NH2]
128 | Ac-SKKKLALIY-NH2 [SEQ ID NO: 34, Ac-SKKKLALIY--NH2]
232 | SKKKAALCY-NH2 [SEQ ID NO: 24, SKKKAALCY--NH2]
